Reference: patent US20260184662A1, “COMPOSITE OF ACID AND SALT, AND PREPARATION METHOD THEREFOR” (NANJING NUTRABUILDING BIO-TECH CO., LTD., priority 2022, published 2026)

assay: Stability of complexes at 30-80° C.; type: physicochemical; details: 30° C.
Text: For R-3-hydroxybutyric acid, potassium R-3-hydroxybutyrate, mixture of R-3-hydroxybutyric acid and potassium R-3-hydroxybutyrate, and R-3-hydroxybutyric acid·potassium R-3-hydroxybutyrate complex of Example 1, […]
For 3-hydroxybutyric acid, potassium 3-hydroxybutyrate, mixture of 3-hydroxybutyric acid and potassium 3-hydroxybutyrate, and 3-hydroxybutyric acid·potassium 3-hydroxybutyrate complex of Example 7, […]
For S-3-hydroxybutyric acid, potassium S-3-hydroxybutyrate, mixture of S-3-hydroxybutyric acid and potassium S-3-hydroxybutyrate, and S-3-hydroxybutyric acid·potassium S-3-hydroxybutyrate complex of Example 13, […]
For R-3-hydroxybutyric acid, calcium R-3-hydroxybutyrate, mixture of R-3-hydroxybutyric acid and calcium R-3-hydroxybutyrate, and R-3-hydroxybutyric acid·calcium R-3-hydroxybutyrate complex of Example 19, […]
For 3-hydroxybutyric acid, calcium 3-hydroxybutyrate, mixture of 3-hydroxybutyric acid and calcium 3-hydroxybutyrate, and 3-hydroxybutyric acid·calcium 3-hydroxybutyrate complex of Example 25, […]
For S-3-hydroxybutyric acid, calcium S-3-hydroxybutyrate, mixture of S-3-hydroxybutyric acid and calcium S-3-hydroxybutyrate, and S-3-hydroxybutyric acid·calcium S-3-hydroxybutyrate complex of Example 31, […]
For R-3-hydroxybutyric acid, magnesium R-3-hydroxybutyrate, mixture of R-3-hydroxybutyric acid and magnesium R-3-hydroxybutyrate, and R-3-hydroxybutyric acid·magnesium R-3-hydroxybutyrate complex of Example 37, […]
For 3-hydroxybutyric acid, magnesium 3-hydroxybutyrate, mixture of 3-hydroxybutyric acid and magnesium 3-hydroxybutyrate, and 3-hydroxybutyric acid·magnesium 3-hydroxybutyrate complex of Example 43, […]
For S-3-hydroxybutyric acid, magnesium S-3-hydroxybutyrate, mixture of S-3-hydroxybutyric acid and magnesium S-3-hydroxybutyrate, and S-3-hydroxybutyric acid·magnesium S-3-hydroxybutyrate complex of Example 49, […]
For R-3-hydroxypentanoic acid, sodium R-3-hydroxypentanoate, mixture of R-3-hydroxypentanoic acid and sodium R-3-hydroxypentanoate, and R-3-hydroxypentanoic acid·sodium R-3-hydroxypentanoate complex of Example 55, […]
For 3-hydroxypentanoic acid, sodium 3-hydroxypentanoate, mixture of 3-hydroxypentanoic acid and sodium 3-hydroxypentanoate, and 3-hydroxypentanoic acid·sodium 3-hydroxypentanoate complex of Example 61, […]
For S-3-hydroxypentanoic acid, sodium S-3-hydroxypentanoate, mixture of S-3-hydroxypentanoic acid and sodium S-3-hydroxypentanoate, and S-3-hydroxypentanoic acid·sodium S-3-hydroxypentanoate complex of Example 67, […]

Row | SMILES | Stability
1 | CC(O)CC(=O)O.CC(O)CC(=O)[O-].CC(O)CC(=O)[O-].[Ca+2] (stereo not drawn) [3-hydroxybutyric acid·calcium 3-hydroxybutyrate] | unchanged

same assay, conditions: 40° C.

Row | SMILES | Stability
2 | CC(O)CC(=O)O.CC(O)CC(=O)[O-].CC(O)CC(=O)[O-].[Ca+2] (stereo not drawn) [3-hydroxybutyric acid·calcium 3-hydroxybutyrate] | unchanged

same assay, conditions: 50° C.

Row | SMILES | Stability
3 | CC(O)CC(=O)O.CC(O)CC(=O)[O-].CC(O)CC(=O)[O-].[Ca+2] (stereo not drawn) [3-hydroxybutyric acid·calcium 3-hydroxybutyrate] | unchanged

same assay, conditions: 60° C.

Row | SMILES | Stability
4 | CC(O)CC(=O)O.CC(O)CC(=O)[O-].CC(O)CC(=O)[O-].[Ca+2] (stereo not drawn) [3-hydroxybutyric acid·calcium 3-hydroxybutyrate] | unchanged

same assay, conditions: 80° C.

Row | SMILES | Stability
5 | CC(O)CC(=O)O.CC(O)CC(=O)[O-].CC(O)CC(=O)[O-].[Ca+2] (stereo not drawn) [3-hydroxybutyric acid·calcium 3-hydroxybutyrate] | melted

assay: Determination of moisture contents with KF moisture meter at different time points; type: physicochemical; details: temperature 23° C., humidity 92.5%, 30 min
Text: For R-3-hydroxybutyric acid, potassium R-3-hydroxybutyrate, mixture of R-3-hydroxybutyric acid and potassium R-3-hydroxybutyrate, and R-3-hydroxybutyric acid·potassium R-3-hydroxybutyrate complex of Example 1, under a certain condition, KF moisture meter was used to determine the moisture contents at different time points.
For 3-hydroxybutyric acid, potassium 3-hydroxybutyrate, mixture of 3-hydroxybutyric acid and potassium 3-hydroxybutyrate, and 3-hydroxybutyric acid·potassium 3-hydroxybutyrate complex of Example 7, under a certain condition, KF moisture meter was used to determine the moisture contents at different time points.
For S-3-hydroxybutyric acid, potassium S-3-hydroxybutyrate, mixture of S-3-hydroxybutyric acid and potassium S-3-hydroxybutyrate, and S-3-hydroxybutyric acid·potassium S-3-hydroxybutyrate complex of Example 13, under a certain condition, KF moisture meter was used to determine the moisture contents at different time points.
For R-3-hydroxybutyric acid, calcium R-3-hydroxybutyrate, mixture of R-3-hydroxybutyric acid and calcium R-3-hydroxybutyrate, and R-3-hydroxybutyric acid·calcium R-3-hydroxybutyrate complex of Example 19, under a certain condition, KF moisture meter was used to determine the moisture contents at different time points.
For 3-hydroxybutyric acid, calcium 3-hydroxybutyrate, mixture of 3-hydroxybutyric acid and calcium 3-hydroxybutyrate, and 3-hydroxybutyric acid·calcium 3-hydroxybutyrate complex of Example 25, under a certain condition, KF moisture meter was used to determine the moisture contents at different time points.
For S-3-hydroxybutyric acid, calcium S-3-hydroxybutyrate, mixture of S-3-hydroxybutyric acid and calcium S-3-hydroxybutyrate, and S-3-hydroxybutyric acid·calcium S-3-hydroxybutyrate complex of Example 31, under a certain condition, KF moisture meter was used to determine the moisture contents at different time points.
For R-3-hydroxybutyric acid, magnesium R-3-hydroxybutyrate, mixture of R-3-hydroxybutyric acid and magnesium R-3-hydroxybutyrate, and R-3-hydroxybutyric acid·magnesium R-3-hydroxybutyrate complex of Example 37, under a certain condition, KF moisture meter was used to determine the moisture contents at different time points.
For 3-hydroxybutyric acid, magnesium 3-hydroxybutyrate, mixture of 3-hydroxybutyric acid and magnesium 3-hydroxybutyrate, and 3-hydroxybutyric acid·magnesium 3-hydroxy butyrate complex of Example 43, under a certain condition, KF moisture meter was used to determine the moisture contents at different time points.
For S-3-hydroxybutyric acid, magnesium S-3-hydroxybutyrate, mixture of S-3-hydroxybutyric acid and magnesium S-3-hydroxybutyrate, and S-3-hydroxybutyric acid·magnesium S-3-hydroxybutyrate complex of Example 49, under a certain condition, KF moisture meter was used to determine the moisture contents at different time points.
For R-3-hydroxypentanoic acid, sodium R-3-hydroxypentanoate, mixture of R-3-hydroxypentanoic acid and sodium R-3-hydroxypentanoate, and R-3-hydroxypentanoic acid·sodium R-3-hydroxypentanoate complex of Example 55, under a certain condition, KF moisture meter was used to determine the moisture contents at different time points.
For 3-hydroxypentanoic acid, sodium 3-hydroxypentanoate, mixture of 3-hydroxypentanoic acid and sodium 3-hydroxypentanoate, and 3-hydroxypentanoic acid·sodium 3-hydroxypentanoate complex of Example 61, under a certain condition, KF moisture meter was used to determine the moisture contents at different time points.
For S-3-hydroxypentanoic acid, sodium S-3-hydroxypentanoate, mixture of S-3-hydroxypentanoic acid and sodium S-3-hydroxypentanoate, and S-3-hydroxypentanoic acid·sodium S-3-hydroxypentanoate complex of Example 67, under a certain condition, KF moisture meter was used to determine the moisture contents at different time points.

Row | SMILES | moisture content (%)
6 | CC(O)CC(=O)O (stereo not drawn) [3-hydroxybutyric acid] | 1.32
7 | CC(O)CC(=O)O.CC(O)CC(=O)[O-].CC(O)CC(=O)[O-].[Ca+2] (stereo not drawn) [3-hydroxybutyric acid·calcium 3-hydroxybutyrate] | 0.56
8 | CCC(O)CC(=O)O (stereo not drawn) [3-hydroxypentanoic acid] | 1.10
9 | C[C@H](O)CC(=O)[O-].C[C@H](O)CC(=O)[O-].[Ca+2] [Calcium S-3-hydroxybutyrate, calcium S-3-hydroxybutyrate] | 0.88
10 | C[C@H](O)CC(=O)[O-].C[C@H](O)CC(=O)[O-].[Mg+2] [Magnesium S-3-hydroxybutyrate, magnesium S-3-hydroxybutyrate] | 0.88

same assay, conditions: temperature 23° C., humidity 92.5%, 1 h

Row | SMILES | moisture content (%)
11 | CC(O)CC(=O)O (stereo not drawn) [3-hydroxybutyric acid] | 2.37
12 | CC(O)CC(=O)O.CC(O)CC(=O)[O-].CC(O)CC(=O)[O-].[Ca+2] (stereo not drawn) [3-hydroxybutyric acid·calcium 3-hydroxybutyrate] | 1.12
13 | CCC(O)CC(=O)O (stereo not drawn) [3-hydroxypentanoic acid] | 1.98
14 | C[C@H](O)CC(=O)[O-].C[C@H](O)CC(=O)[O-].[Ca+2] [Calcium S-3-hydroxybutyrate, calcium S-3-hydroxybutyrate] | 1.92
15 | C[C@H](O)CC(=O)[O-].C[C@H](O)CC(=O)[O-].[Mg+2] [Magnesium S-3-hydroxybutyrate, magnesium S-3-hydroxybutyrate] | 1.28

same assay, conditions: temperature 23° C., humidity 92.5%, 2 h

Row | SMILES | moisture content (%)
16 | CC(O)CC(=O)O (stereo not drawn) [3-hydroxybutyric acid] | 4.15
17 | CC(O)CC(=O)O.CC(O)CC(=O)[O-].CC(O)CC(=O)[O-].[Ca+2] (stereo not drawn) [3-hydroxybutyric acid·calcium 3-hydroxybutyrate] | 1.86
18 | CCC(O)CC(=O)O (stereo not drawn) [3-hydroxypentanoic acid] | 3.46
19 | C[C@H](O)CC(=O)[O-].C[C@H](O)CC(=O)[O-].[Ca+2] [Calcium S-3-hydroxybutyrate, calcium S-3-hydroxybutyrate] | 2.25
20 | C[C@H](O)CC(=O)[O-].C[C@H](O)CC(=O)[O-].[Mg+2] [Magnesium S-3-hydroxybutyrate, magnesium S-3-hydroxybutyrate] | 2.43

same assay, conditions: temperature 23° C., humidity 92.5%, 4 h

Row | SMILES | moisture content (%)
21 | CC(O)CC(=O)O (stereo not drawn) [3-hydroxybutyric acid] | 6.59
22 | CC(O)CC(=O)O.CC(O)CC(=O)[O-].CC(O)CC(=O)[O-].[Ca+2] (stereo not drawn) [3-hydroxybutyric acid·calcium 3-hydroxybutyrate] | 3.19
23 | CCC(O)CC(=O)O (stereo not drawn) [3-hydroxypentanoic acid] | 5.49
24 | C[C@H](O)CC(=O)[O-].C[C@H](O)CC(=O)[O-].[Ca+2] [Calcium S-3-hydroxybutyrate, calcium S-3-hydroxybutyrate] | 4.18
25 | C[C@H](O)CC(=O)[O-].C[C@H](O)CC(=O)[O-].[Mg+2] [Magnesium S-3-hydroxybutyrate, magnesium S-3-hydroxybutyrate] | 4.22

same assay, conditions: temperature 23° C., humidity 92.5%, 6 h

Row | SMILES | moisture content (%)
26 | CC(O)CC(=O)O (stereo not drawn) [3-hydroxybutyric acid] | 9.68
27 | CC(O)CC(=O)O.CC(O)CC(=O)[O-].CC(O)CC(=O)[O-].[Ca+2] (stereo not drawn) [3-hydroxybutyric acid·calcium 3-hydroxybutyrate] | 4.68
28 | CCC(O)CC(=O)O (stereo not drawn) [3-hydroxypentanoic acid] | 8.07
29 | C[C@H](O)CC(=O)[O-].C[C@H](O)CC(=O)[O-].[Ca+2] [Calcium S-3-hydroxybutyrate, calcium S-3-hydroxybutyrate] | 5.24
30 | C[C@H](O)CC(=O)[O-].C[C@H](O)CC(=O)[O-].[Mg+2] [Magnesium S-3-hydroxybutyrate, magnesium S-3-hydroxybutyrate] | 6.37

same assay, conditions: temperature 23° C., humidity 92.5%, 7 h

Row | SMILES | moisture content (%)
31 | CC(O)CC(=O)O (stereo not drawn) [3-hydroxybutyric acid] | 10.71
32 | CC(O)CC(=O)O.CC(O)CC(=O)[O-].CC(O)CC(=O)[O-].[Ca+2] (stereo not drawn) [3-hydroxybutyric acid·calcium 3-hydroxybutyrate] | 5.45
33 | CCC(O)CC(=O)O (stereo not drawn) [3-hydroxypentanoic acid] | 8.93
34 | C[C@H](O)CC(=O)[O-].C[C@H](O)CC(=O)[O-].[Ca+2] [Calcium S-3-hydroxybutyrate, calcium S-3-hydroxybutyrate] | 6.25
35 | C[C@H](O)CC(=O)[O-].C[C@H](O)CC(=O)[O-].[Mg+2] [Magnesium S-3-hydroxybutyrate, magnesium S-3-hydroxybutyrate] | 8.24

same assay, conditions: temperature 23° C., humidity 92.5%, 11 h

Row | SMILES | moisture content (%)
36 | CC(O)CC(=O)O (stereo not drawn) [3-hydroxybutyric acid] | 17.33
37 | CC(O)CC(=O)O.CC(O)CC(=O)[O-].CC(O)CC(=O)[O-].[Ca+2] (stereo not drawn) [3-hydroxybutyric acid·calcium 3-hydroxybutyrate] | 8.72
38 | CCC(O)CC(=O)O (stereo not drawn) [3-hydroxypentanoic acid] | 14.44
39 | C[C@H](O)CC(=O)[O-].C[C@H](O)CC(=O)[O-].[Ca+2] [Calcium S-3-hydroxybutyrate, calcium S-3-hydroxybutyrate] | 10.34
40 | C[C@H](O)CC(=O)[O-].C[C@H](O)CC(=O)[O-].[Mg+2] [Magnesium S-3-hydroxybutyrate, magnesium S-3-hydroxybutyrate] | 12.35

same assay, conditions: temperature 23° C., humidity 92.5%, 22 h

Row | SMILES | moisture content (%)
41 | CC(O)CC(=O)O (stereo not drawn) [3-hydroxybutyric acid] | 33.51
42 | CC(O)CC(=O)O.CC(O)CC(=O)[O-].CC(O)CC(=O)[O-].[Ca+2] (stereo not drawn) [3-hydroxybutyric acid·calcium 3-hydroxybutyrate] | 14.43
43 | CCC(O)CC(=O)O (stereo not drawn) [3-hydroxypentanoic acid] | 27.93
44 | C[C@H](O)CC(=O)[O-].C[C@H](O)CC(=O)[O-].[Ca+2] [Calcium S-3-hydroxybutyrate, calcium S-3-hydroxybutyrate] | 17.55
45 | C[C@H](O)CC(=O)[O-].C[C@H](O)CC(=O)[O-].[Mg+2] [Magnesium S-3-hydroxybutyrate, magnesium S-3-hydroxybutyrate] | 18.54
